How the values were obtained:
[1] = system: C2C12 cells; assay: MSS51 expression by qPCR in C2C12 cells treated with vehicle or TGF-β1; format: cell-based, murine; conditions: scrambled and S1P-depleted C2C12 cells, 50 ng/ml for 5 h, versus vehicle
Protocol: Total RNA was isolated from C2C12 cells, skeletal muscle, heart, adipose, kidney, and liver with RNA STAT-60 (Tel-Test Inc) as per manufacturer's instructions. For tissues, RNA was isolated by disrupting tissue in RNA STAT-60 using […] (Qiagen) and a TissueLyser II (Qiagen). RNA was reverse transcribed into cDNA using the High-Capacity cDNA Reverse Transcription Kit (Applied Biosystems). Quantitative real-time PCR was performed using Power SYBR green (Applied Biosystems) and transcripts quantified on an ABI QuantiStudio 3 sequence detection system (Applied Biosystems). Data was normalized to 36B4 expression, unless otherwise noted, and results analyzed using the 2^−ΔΔCt method and reported as relative units to controls.
C2C12 cells were plated onto 6-well plates at a 2×10^5 density and 24 h later transfected with either negative control siRNA (Negative Control No. 1 siRNA, Life Technologies) or custom siRNAs targeting S1P (Silencer Select siRNAs, Life Technologies) using Lipofectamine RNAiMAX as per manufacturer's instructions. After 48 h, cells were either harvested for gene expression analysis or differentiated with DMEM supplemented with 2% horse serum. Two days after differentiation, cells were harvested for gene expression analysis. […]

[2] = system: C2C12 cells; assay: Western blot of phosphorylated Smad 2 and AKT in TGF-β1-treated C2C12 cells; format: cell-based, murine; conditions: TGF-β1-treated versus untreated cells, whole-cell lysates
Protocol: C2C12 cells were plated onto 6-well plates at a 2×10^5 density and 24 h later transfected with either negative control siRNA (Negative Control No. 1 siRNA, Life Technologies) or custom siRNAs targeting S1P (Silencer Select siRNAs, Life Technologies) using Lipofectamine RNAiMAX as per manufacturer's instructions. After 48 h, cells were either harvested for gene expression analysis or differentiated with DMEM supplemented with 2% horse serum. Two days after differentiation, cells were harvested for gene expression analysis. For TGF-β1 treatment studies, three days post-differentiation, cells were treated with 50 ng/ml TGF-β1 (R&D) for 5 h then harvested for downstream endpoints.
Skeletal muscle whole protein lysates were generated by homogenizing tissues in lysis buffer (20 mM Tris, 15 mM NaCl, 1 mM EDTA, 0.2% NP-40, and 10% glycerol) supplemented with 2× Protease Complete cocktail tablet (Roche) and 1× Phosphatase Inhibitors (Roche, Mannheim, Germany) with stainless steel beads in a TissueLyzer II (Qiagen). Protein lysates were rotated for 45 min at 4° C., followed by centrifugation at 15,000×g for 15 min at 4° C. Protein was quantified by bicinchoninic acid assay (BCA, Pierce Biotechnology), equal amounts of protein were resolved on a 4-15 SDS-PAGE gradient gel (Bio-Rad), and transferred to PVDF-FL membrane (MilliporeSigma). […]

## TGF-β1: recombinant TGF-β1 (R&D) used to treat C2C12 cells
[1]
  MSS51 expression in the presence of TGF-β1: increased
[2]
  Smad 2 phosphorylation induced by TGF-β1: induced
